For series [1], the system named is Pseudomonas aeruginosa efflux− (MB9799), IMP-1. It is filed as cell-based. The settings on record: C, D serine β-lactamase inhibitor closely related to relebactam; for P. aeruginosa expressing IMP-1, efflux − (MB9799) MITC95: concentration restoring susceptibility to imipenem at 2 μg/mL in the presence of a class A; for Concentration of metallo-β-lactamase inhibitor which restores susceptibility of efflux − (MB9799) strain to imipenem: imipenem at 2 μg/mL, in the presence of a class A. In outline:
(§1)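 Microbroth MIC tests in PAO1-background strains with fixed imipenem and/or ceftazidime, usually at the CLSI breakpoint, plus fixed class A/C β-lactamase inhibitor against AmpC. MBL inhibitor titrated; concentration restoring susceptibility recorded and compared as fold difference between efflux+ MB9798 and efflux− MB9799.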

A further series concerns the target NDM-1 (Klebsiella pneumoniae, UniProt C7C422). The series can be described thus: biochemical. It is filed as biochemical. Conditions: fluorescence assay, CCF2-FA substrate, 1 pM enzyme, 2 hours at 25° C.; read-out: NDM-1 IC50. In outline: (§2)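 Fluorescence assay, CCF2-FA substrate (cephalosporin core linking 7-hydroxycoumarin to fluorescein); inhibitor + MBL + substrate, 2 h, 25° C. IC50 by 4-parameter fit, semi-log plot.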

The next series has as its target IMP-1 (Serratia marcescens, UniProt P52699). The series can be described thus: biochemical. Conditions: fluorescence assay, CCF2-FA substrate, 2 pM enzyme, 2 hours at 25° C.; read-out: IMP-1 IC50. The class given is biochemical. A digest of the protocol: as §2
The target of a further series is VIM-1 (Pseudomonas aeruginosa (strain ATCC 15692 / DSM 22644 / CIP 104116 / JCM 14847 / LMG 12228 / 1C / PRS 101 / PAO1), UniProt A0A0F7KYQ8). Briefly: biochemical. The settings on record: CCF2-FA substrate, 30 pM enzyme, 2 hours at 25° C. A digest of the protocol:
as §2

The test system of series [2] is Escherichia coli expressing NDM-1 (CLB30005, CLB30016). It is filed as cell-based. Conditions: with imipenem 1 μg/ml; for Escherichia coli MITC95: NDM-1 strain, 95% inhibition of growth. In outline: (§3)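 Colonies grown overnight on blood agar at 35° C were suspended in saline, diluted 1:100 into 1.1×CAMHB and dispensed. Imipenem was added to 1 μg/ml, then test compound. After 22 hours to 24 hours at 35° C, absorbance was recorded.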

In series [3] the test system is Serratia marcescens expressing IMP-1 (CL5741). It is filed as cell-based. The settings on record: for Serratia marcescens MITC95: IMP-1 strain CL5741, with imipenem 1 μg/ml, 95% inhibition of growth. In outline:
as §3

Series [4] concerns Klebsiella pneumoniae expressing VIM-1 (IHMA599644). The class given is cell-based. The settings on record: for Klebsiella pneumoniae MITC95: VIM-1 strain IHMA599644, with imipenem 1 μg/ml, 95% inhibition of growth. In outline: as §3
Series [5] relates to Pseudomonas aeruginosa MB9798 vs MB9799. In outline:
as §1

The subject of series [6] is Pseudomonas aeruginosa efflux+ (MB9798), IMP-1. The class given is cell-based. Conditions: C, D serine β-lactamase inhibitor closely related to relebactam; for P. aeruginosa expressing IMP-1, efflux + (MB9798) MITC95: concentration restoring susceptibility to imipenem at 2 μg/mL in the presence of a class A; for Concentration of metallo-β-lactamase inhibitor which restores susceptibility of efflux + (MB9798) strain to imipenem: imipenem at 2 μg/mL, in the presence of a class A. The arrangement: Concentration of metallo-β-lactamase inhibitor which restores susceptibility of efflux + (MB9798) strain to imipenem: unit not given here. In outline: as §1

The mark [7] stands for this setting: fluorescence assay, read-out: VIM-1 IC50.
The mark [8] stands for this setting: with imipenem 1 μg/ml, 95% inhibition of bacterial growth.
[9] abbreviates: ratio MITC95 PA_9798/MITC95 PA_9799.
Setting [10] is: fold difference between efflux+ (MB9798) and efflux− (MB9799) strains, imipenem at 2 μg/mL.

Molecules are shown by their SMILES. Where two headings read alike, the source gives them in different places.

Chain of IMP-1 (P52699 whole entry, looked up, species assumed): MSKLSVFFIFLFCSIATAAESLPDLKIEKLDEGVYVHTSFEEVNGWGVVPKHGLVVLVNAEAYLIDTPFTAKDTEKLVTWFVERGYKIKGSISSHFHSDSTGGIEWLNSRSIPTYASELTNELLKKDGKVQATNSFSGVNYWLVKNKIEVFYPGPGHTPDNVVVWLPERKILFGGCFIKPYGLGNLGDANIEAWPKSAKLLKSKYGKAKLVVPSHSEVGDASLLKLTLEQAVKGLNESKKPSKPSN
Chain of NDM-1 (C7C422 whole entry, looked up, species assumed): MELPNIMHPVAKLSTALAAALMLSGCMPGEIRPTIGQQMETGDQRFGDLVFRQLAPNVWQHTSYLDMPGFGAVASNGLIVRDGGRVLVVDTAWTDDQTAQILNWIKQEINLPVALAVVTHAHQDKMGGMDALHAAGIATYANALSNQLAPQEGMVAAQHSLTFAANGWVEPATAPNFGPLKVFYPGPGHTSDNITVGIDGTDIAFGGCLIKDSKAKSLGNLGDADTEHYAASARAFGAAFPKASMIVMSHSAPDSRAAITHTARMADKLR

The IC50 is the point on the concentration scale where inhibition reaches its midpoint. With `NS(=O)(=O)c1c(S(=O)(=O)N[C@H]2CCNC2)ccc(-c2cccc3[nH]cnc23)c1-c1nn[nH]n1` [Example 197], the “P. aeruginosa expressing IMP-1, efflux − (MB9799) MITC95” value in [1] amounted to 0.7813 µM. Moreover, the IC50 on NDM-1 stood at 0.0764 nM; at IMP-1, 0.395 nM; on VIM-1 (setting [7]), 0.145 nM. Moreover, the “Escherichia coli expressing NDM-1 (CLB30016) MITC95” value in [2] (95% inhibition of bacterial growth) is 2.344 µM. Moreover, in series [3] (setting [8]), the “Serratia marcescens expressing IMP-1 (CL5741) MITC95” value was 1.172 µM. For the same compound, in series [4] (setting [8]), the “Klebsiella pneumoniae expressing VIM-1 (IHMA599644) MITC95” value stood at 3.125 µM. Moreover, the Efflux ratio in series [5] (setting [9]) worked out at 1.00. For the same compound, the “P. aeruginosa expressing IMP-1, efflux + (MB9798) MITC95” value in series [6] came to 0.7813 µM.
For the compound `Cc1cc(-c2ccc(S(=O)(=O)NC[C@@H](O)CN)c(S(N)(=O)=O)c2-c2nn[nH]n2)cnc1N` [Example 468, (S)-N1-(3-amino-2-hydroxypropyl)-4-(6-amino-5-methylpyridin-3-yl)-3-(2H-tetrazol-5-yl)benzene-1,2-disulfonamide], the “Concentration of metallo-β-lactamase inhibitor which restores susceptibility of efflux − (MB9799) strain to imipenem” value in [1] is on record as 0.7813. Also, the IC50 at NDM-1 was found to be 0.133 nM; on IMP-1 it was 0.569 nM; at VIM-1 (setting [7]), 0.0869 nM. Moreover, the “Escherichia coli MITC95” value in series [2] is 0.3906 µM. Also, in [3], the “Serratia marcescens MITC95” value is 0.7813 µM. Also, the “Klebsiella pneumoniae MITC95” value in series [4] was found to be 3.125 µM. In addition, in series [5] (setting [10]), the Efflux ratio was found to be 2.00. Further, the “Concentration of metallo-β-lactamase inhibitor which restores susceptibility of efflux + (MB9798) strain to imipenem” value in series [6] came to 1.563.
On to `NCCNS(=O)(=O)c1ccc(-c2cccc(C(=O)NC[C@@H](N)CO)c2N)c(-c2nn[nH]n2)c1S(N)(=O)=O` [Example 332], for which the “P. aeruginosa expressing IMP-1, efflux − (MB9799) MITC95” value in [1] amounted to 1.563 µM. For the same compound, the IC50 at NDM-1 came to 0.661 nM; on IMP-1 it was 3 nM; on VIM-1 (setting [7]) it was 0.23 nM. Further, in series [2], the “Escherichia coli MITC95” value was 1.563 µM. In addition, the “Serratia marcescens MITC95” value in series [3] amounted to 1.563 µM. The “Klebsiella pneumoniae MITC95” value in series [4] worked out at 3.125 µM. Also, the Efflux ratio in [5] (setting [9]) is listed as 1.00. The “P. aeruginosa expressing IMP-1, efflux + (MB9798) MITC95” value in [6] was determined as 1.563 µM.
For the compound `NCc1nc2c(-c3ccc(S(=O)(=O)NC[C@@H](O)CN)c(S(N)(=O)=O)c3-c3nn[nH]n3)cccc2[nH]1` [Example 305, (S)—N1-(3-amino-2-hydroxypropyl)-4-(2-(aminomethyl)-1H-benzo[d]imidazole-4-yl)-3-(2H-tetrazol-5-yl)benzene-1,2-disulfonamide], in series [1], the “P. aeruginosa expressing IMP-1, efflux − (MB9799) MITC95” value was 0.7813 µM. For the same compound, the IC50 at NDM-1 was 0.136 nM; at IMP-1, 2.06 nM; against VIM-1 (VIM-1 IC50, fluorescence assay) it was 0.175 nM. Also, the “Escherichia coli MITC95” value in series [2] worked out at 1.172 µM. Moreover, the “Serratia marcescens MITC95” value in [3] is 1.172 µM. Moreover, the “Klebsiella pneumoniae MITC95” value in series [4] was 1.563 µM. Further, in [5] (setting [9]), the Efflux ratio worked out at 1.00. Further, the “P. aeruginosa expressing IMP-1, efflux + (MB9798) MITC95” value in [6] turned out to be 0.7813 µM.
As to `NCCNS(=O)(=O)c1ccc(-c2ccc3[nH]c(CN)nc3c2)c(-c2nn[nH]n2)c1S(N)(=O)=O` [Example 466, N1-(2-aminoethyl)-4-(2-(aminomethyl)-1H-benzo[d]imidazol-5-yl)-3-(2H-tetrazol-5-yl)benzene-1,2-disulfonamide], the “Concentration of metallo-β-lactamase inhibitor which restores susceptibility of efflux − (MB9799) strain to imipenem” value in series [1] was determined as 0.7813. In addition, the results for the IC50 at NDM-1, on IMP-1 and at VIM-1 (setting [7]) were 0.359 nM, 0.967 nM and 0.138 nM, respectively. Besides, in series [2], the “Escherichia coli MITC95” value worked out at 0.7813 µM. For the same compound, the “Serratia marcescens MITC95” value in [3] is 1.563 µM. In addition, the “Klebsiella pneumoniae MITC95” value in series [4] is 1.563 µM. For the same compound, in series [5] (setting [10]), the Efflux ratio stood at 1.00. Further, in series [6], the “Concentration of metallo-β-lactamase inhibitor which restores susceptibility of efflux + (MB9798) strain to imipenem” value worked out at 0.7813.
